Test results: US11591323B2, “Muscarinic agonists as non-steroidal and non-opioid analgesics and methods of use thereof” (Barry University, priority 2019, dated 2023)

Tests used:
Set-up in all cases: host or cells: CHO cells, stably transfected
M4 muscarinic receptor = molecular target: T1, M4 muscarinic receptor (Homo sapiens, UniProt P08173); assay: inhibition of forskolin-stimulated cAMP, M4 CHO cells (M4Gi); format: cell-based; details: M4 (↓cAMP), preferential response; for Emax: CHO, read-out: E′MAX; for Emax / τ / Kd / EC50: Table 7; for τ: operational efficacy; for Kd: operational model, read-out: pKA (converted); for EC50: read-out: pEC50 (converted); for RAi: relative to carbachol; for RAi / Δlog(τ/KA): Tables 2, 3, 7; for Δlog(τ/KA): to carbachol
T1 sequence (P08173 1-479): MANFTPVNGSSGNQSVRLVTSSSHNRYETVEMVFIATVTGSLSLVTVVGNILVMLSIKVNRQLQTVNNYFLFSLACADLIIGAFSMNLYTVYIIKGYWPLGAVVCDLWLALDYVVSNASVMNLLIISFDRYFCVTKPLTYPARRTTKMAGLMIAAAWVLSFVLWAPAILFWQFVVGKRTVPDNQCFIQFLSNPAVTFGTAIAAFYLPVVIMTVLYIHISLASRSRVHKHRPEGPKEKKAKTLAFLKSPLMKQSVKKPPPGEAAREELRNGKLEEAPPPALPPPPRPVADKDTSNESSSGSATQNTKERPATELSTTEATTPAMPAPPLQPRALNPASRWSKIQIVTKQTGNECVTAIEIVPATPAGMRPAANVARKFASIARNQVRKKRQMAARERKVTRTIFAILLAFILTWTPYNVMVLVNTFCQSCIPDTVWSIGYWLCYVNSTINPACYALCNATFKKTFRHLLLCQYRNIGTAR

M5 muscarinic receptor = molecular target: T2, M5 muscarinic receptor (Homo sapiens, UniProt P08912); assay: accumulation of IPX, M5 CHO cells (M5Gq); format: cell-based; details: M5 (↑IPX), preferential response; for E′MAX / τ / Kd / EC50: Table 7; for τ: operational efficacy; for Kd: operational model, read-out: pKA (converted); for EC50: read-out: pEC50 (converted); for RAi: relative to carbachol; for RAi / Δlog(τ/KA): Tables 2, 3, 7; for Δlog(τ/KA): to carbachol
T2 sequence (P08912 1-532): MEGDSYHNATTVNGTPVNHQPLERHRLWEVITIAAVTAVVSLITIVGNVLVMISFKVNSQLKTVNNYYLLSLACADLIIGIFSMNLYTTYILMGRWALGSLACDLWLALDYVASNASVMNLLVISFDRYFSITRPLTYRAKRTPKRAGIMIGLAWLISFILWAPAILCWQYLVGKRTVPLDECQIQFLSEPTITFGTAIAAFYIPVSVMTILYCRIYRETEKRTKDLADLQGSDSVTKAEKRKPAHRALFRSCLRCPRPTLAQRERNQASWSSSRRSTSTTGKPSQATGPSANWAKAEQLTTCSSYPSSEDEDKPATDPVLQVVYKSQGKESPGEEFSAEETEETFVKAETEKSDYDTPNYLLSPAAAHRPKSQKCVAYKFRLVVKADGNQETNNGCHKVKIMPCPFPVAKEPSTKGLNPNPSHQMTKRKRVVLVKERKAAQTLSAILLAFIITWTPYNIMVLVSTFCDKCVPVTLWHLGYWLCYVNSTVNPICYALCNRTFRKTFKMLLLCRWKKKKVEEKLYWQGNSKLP

M3 muscarinic receptor [1] = molecular target: T3, M3 muscarinic receptor (Homo sapiens, UniProt P20309); assay: accumulation of IPX, M3 CHO cells (M3Gq); format: cell-based; details: M3 (↑IPX), preferential response; for E′MAX / τ / Kd / EC50: Table 7; for τ: operational efficacy; for Kd: operational model, read-out: pKA (converted); for EC50: read-out: pEC50 (converted); for RAi: relative to carbachol; for RAi / Δlog(τ/KA): Tables 2, 3, 7; for Δlog(τ/KA): to carbachol
T3 sequence (P20309 whole entry): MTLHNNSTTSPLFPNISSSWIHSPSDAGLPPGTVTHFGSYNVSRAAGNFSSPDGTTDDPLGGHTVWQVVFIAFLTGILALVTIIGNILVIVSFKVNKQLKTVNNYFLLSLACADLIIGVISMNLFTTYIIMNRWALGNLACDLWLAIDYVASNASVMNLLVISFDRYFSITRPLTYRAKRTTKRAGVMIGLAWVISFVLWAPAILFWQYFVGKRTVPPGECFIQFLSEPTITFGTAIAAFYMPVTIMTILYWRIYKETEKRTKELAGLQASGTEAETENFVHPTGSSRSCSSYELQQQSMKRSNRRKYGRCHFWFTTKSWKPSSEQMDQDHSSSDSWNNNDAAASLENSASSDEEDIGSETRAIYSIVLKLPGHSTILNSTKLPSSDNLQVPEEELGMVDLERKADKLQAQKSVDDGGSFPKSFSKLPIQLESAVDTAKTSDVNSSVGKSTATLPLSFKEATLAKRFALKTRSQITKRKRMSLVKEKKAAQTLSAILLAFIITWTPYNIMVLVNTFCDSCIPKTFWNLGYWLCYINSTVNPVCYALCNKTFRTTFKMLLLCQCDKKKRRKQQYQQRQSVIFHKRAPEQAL

M2 muscarinic receptor = molecular target: T4, M2 muscarinic receptor (Homo sapiens, UniProt P08172); assay: inhibition of forskolin-stimulated cAMP, M2 CHO cells (M2Gi); format: cell-based; details: M2 (↓cAMP), preferential response; for Emax: CHO, read-out: E′MAX; for Emax / τ / Kd / EC50: Table 7; for τ: operational efficacy; for Kd: operational model, read-out: pKA (converted); for EC50: read-out: pEC50 (converted); for RAi: relative to carbachol; for RAi / Δlog(τ/KA): Tables 2, 3, 7; for Δlog(τ/KA): to carbachol
T4 sequence (P08172 1-466): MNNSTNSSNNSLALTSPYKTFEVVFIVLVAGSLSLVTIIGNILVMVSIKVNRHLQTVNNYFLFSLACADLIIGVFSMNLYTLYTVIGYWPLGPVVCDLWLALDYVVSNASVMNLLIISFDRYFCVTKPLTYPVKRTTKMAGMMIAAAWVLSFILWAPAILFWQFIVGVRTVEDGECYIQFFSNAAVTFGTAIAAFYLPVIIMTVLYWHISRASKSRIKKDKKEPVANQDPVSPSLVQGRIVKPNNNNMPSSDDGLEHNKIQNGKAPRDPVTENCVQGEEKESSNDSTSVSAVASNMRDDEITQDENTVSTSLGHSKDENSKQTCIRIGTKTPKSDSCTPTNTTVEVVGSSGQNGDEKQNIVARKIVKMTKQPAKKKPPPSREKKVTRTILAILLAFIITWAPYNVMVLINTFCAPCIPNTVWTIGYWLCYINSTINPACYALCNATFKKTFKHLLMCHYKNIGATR

M3 muscarinic receptor [2] = molecular target: T3, M3 muscarinic receptor; assay: [3H]NMS competition binding, M3 CHO membranes; details: competition with 1 nM [3H]NMS; read-out: Inhibition constants (Ki) as negative logarithms, M3 (converted)
M1 muscarinic receptor = molecular target: T5, M1 muscarinic receptor (Homo sapiens, UniProt P11229); assay: accumulation of inositol phosphates IPX, M1 CHO cells (M1Gq); format: cell-based; details: M1 (↑IPX), preferential response; for E′MAX / τ / Kd / EC50: Table 7; for τ: operational efficacy; for Kd: operational model, read-out: pKA (converted); for EC50: read-out: pEC50 (converted); for RAi: relative to carbachol; for RAi / Δlog(τ/KA): Tables 2, 3, 7; for Δlog(τ/KA): to carbachol
T5 sequence (P11229 1-460): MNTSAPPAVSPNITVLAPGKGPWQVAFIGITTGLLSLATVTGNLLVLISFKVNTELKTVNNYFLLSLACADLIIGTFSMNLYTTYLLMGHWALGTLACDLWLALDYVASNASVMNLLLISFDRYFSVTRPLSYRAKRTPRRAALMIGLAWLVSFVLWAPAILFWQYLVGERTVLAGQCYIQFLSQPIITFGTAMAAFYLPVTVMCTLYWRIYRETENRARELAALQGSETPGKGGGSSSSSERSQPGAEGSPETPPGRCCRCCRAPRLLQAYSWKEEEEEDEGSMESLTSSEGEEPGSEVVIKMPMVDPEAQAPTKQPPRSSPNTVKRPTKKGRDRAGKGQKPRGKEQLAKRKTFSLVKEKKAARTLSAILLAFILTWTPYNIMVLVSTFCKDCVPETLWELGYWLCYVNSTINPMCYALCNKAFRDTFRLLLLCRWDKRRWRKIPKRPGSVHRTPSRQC

Cc1ccc(CN2CC=CCC2)s1.Cl [Compound 6B, 1-[(5-methylthiophen-2-yl)methyl]-1,2,3,6-tetrahydropyridin-1-ium chloride]
Emax (M4 muscarinic receptor): 25 ± 2%
τ (M4 muscarinic receptor): 0.39 ± 0.04
Kd (M4 muscarinic receptor): 12.6 µM
EC50 (M4 muscarinic receptor): 9.77 µM
RAi (M4 muscarinic receptor): 0.0020 ± 0.0002
Δlog(τ/KA) (M4 muscarinic receptor): 2.51 ± 0.20
E′MAX (M5 muscarinic receptor): 1.7 ± 0.1 fold over basal
τ (M5 muscarinic receptor): 0.04 ± 0.01
Kd (M5 muscarinic receptor): 15.8 µM
EC50 (M5 muscarinic receptor): 15.1 µM
RAi (M5 muscarinic receptor): 0.0009 ± 0.0005
Δlog(τ/KA) (M5 muscarinic receptor): 3.04 ± 0.66
E′MAX (M3 muscarinic receptor [1]): 2.0 ± 0.2 fold over basal
τ (M3 muscarinic receptor [1]): 0.04 ± 0.01
Kd (M3 muscarinic receptor [1]): 15.8 µM
EC50 (M3 muscarinic receptor [1]): 31.6 µM
RAi (M3 muscarinic receptor [1]): 0.0006 ± 0.0001
Δlog(τ/KA) (M3 muscarinic receptor [1]): 3.24 ± 0.34
Emax (M2 muscarinic receptor): 47 ± 2%
τ (M2 muscarinic receptor): 1.15 ± 0.08
Kd (M2 muscarinic receptor): 20 µM
EC50 (M2 muscarinic receptor): 9.12 µM
RAi (M2 muscarinic receptor): 0.0047 ± 0.0004
Δlog(τ/KA) (M2 muscarinic receptor): 2.35 ± 0.16
Ki (M3 muscarinic receptor [2]): 22.9 µM
E′MAX (M1 muscarinic receptor): 2.0 ± 0.2 fold over basal
τ (M1 muscarinic receptor): 0.03 ± 0.01
Kd (M1 muscarinic receptor): 15.8 µM
EC50 (M1 muscarinic receptor): 15.8 µM
RAi (M1 muscarinic receptor): 0.0005 ± 0.0001
Δlog(τ/KA) (M1 muscarinic receptor): 3.28 ± 0.38

Brc1ccc(CN2CC=CCC2)s1.Cl [Compound 6C, 1-[(5-bromothiophen-2-yl)methyl]-1,2,3,6-tetrahydropyridin-1-ium chloride]
Emax (M4 muscarinic receptor): 13 ± 1%
τ (M4 muscarinic receptor): 0.38 ± 0.04
Kd (M4 muscarinic receptor): 2.51 µM
EC50 (M4 muscarinic receptor): 2.14 µM
RAi (M4 muscarinic receptor): 0.0041 ± 0.005
Δlog(τ/KA) (M4 muscarinic receptor): 2.13 ± 0.12
E′MAX (M5 muscarinic receptor): 1.36 ± 0.08 fold over basal
τ (M5 muscarinic receptor): 0.02 ± 0.01
Kd (M5 muscarinic receptor): 7.94 µM
EC50 (M5 muscarinic receptor): 7.59 µM
RAi (M5 muscarinic receptor): 0.0009 ± 0.0003
Δlog(τ/KA) (M5 muscarinic receptor): 3.03 ± 0.95
E′MAX (M3 muscarinic receptor [1]): 1.8 ± 0.1 fold over basal
τ (M3 muscarinic receptor [1]): 0.03 ± 0.01
Kd (M3 muscarinic receptor [1]): 3.98 µM
EC50 (M3 muscarinic receptor [1]): 5.01 µM
RAi (M3 muscarinic receptor [1]): 0.0029 ± 0.0004
Δlog(τ/KA) (M3 muscarinic receptor [1]): 2.53 ± 0.33
Emax (M2 muscarinic receptor): 24 ± 1%
τ (M2 muscarinic receptor): 0.38 ± 0.04
Kd (M2 muscarinic receptor): 3.16 µM
EC50 (M2 muscarinic receptor): 2.19 µM
RAi (M2 muscarinic receptor): 0.0070 ± 0.0006
Δlog(τ/KA) (M2 muscarinic receptor): 2.02 ± 0.22
Ki (M3 muscarinic receptor [2]): 14.1 µM
E′MAX (M1 muscarinic receptor): 2.1 ± 0.2 fold over basal
τ (M1 muscarinic receptor): 0.03 ± 0.01
Kd (M1 muscarinic receptor): 3.98 µM
EC50 (M1 muscarinic receptor): 3.47 µM
RAi (M1 muscarinic receptor): 0.0024 ± 0.0002
Δlog(τ/KA) (M1 muscarinic receptor): 2.62 ± 0.36
